Laboratory results taken from patent US4352802A, “Bicyclo[3.3.1]nonyl-benzamide” (Beecham Group Limited, priority 1980, dated 1982).

What was measured:
Assay type in all cases: in vivo
Dopamine Receptor [1] = test: Inhibition of apomorphine induced climbing in the mouse (dopamine receptor blocking activity in the central nervous system); conditions: p.o., apomorphine 1 mg/kg s.c., not necessarily the lowest active dose
Method: II. Dopamine Receptor Blocking Activity in the Central Nervous System
Compounds were tested for inhibition of apomorphine induced climbing in the mouse. The test is based on that described by Protais, P., Constantin, J. and Schwartz J. C. (1976), Psychopharmacology, 50, 1-6.
Apomorphine 1 mg/kg s.c. induces mice to climb the wall of a wire cage (inverted food hopper-11×7.5×18 cm high). Mice acclimatised in their home cages in groups of 5 are placed under the hoppers immediately after the injection of apomorphine 1 mg/kg s.c. At 10,20 and 30 minutes after injection climbing behaviour is scored. The mice are observed for 30 seconds and scored according to the position they spend the majority of time in, score 0--four paws on floor of cage; score 1--[…]; score 2--all paws on wall of cage. The scores at all 3 times and for each mouse are summed and mice drug treated orally compared to mice receiving apomorphine only. A saline only treated group is also included and any score, generally <5% of maximum taken into account.

[2] = test system: inhibitory effect of 6,7-ADTN on gastric motility; test: Gastric motility testing in the rat (reversal of 6,7-ADTN inhibition); conditions: conscious chronic gastric fistula rat, 1 mg/kg s.c., 10 minutes after 6,7-ADTN 1 mg/kg s.c.
Method: III. Gastric Motility Testing in the rat
The compounds were tested for ability to reverse the inhibitory effect of 6,7-ADTN on gastric motility as recorded by an open tipped catheter in the conscious chronic gastric fistula rat. Administration of 1 mg/kg s.c. of 6,7-ADTN reduced basal gastric motor activity and this was reversed by the administration of the compound administered 10 minutes after the 6,7-ADTN. […] For subcutaneous testing the compound was dissolved in water by the addition of tartaric acid (1/2 mole per mole of compound).

[3] = test system: vomiting response to apomorphine HCl; test: Anti-emetic activity in the dog (apomorphine-induced vomiting); conditions: Canis lupus familiaris, sc, 30 minutes prior to apomorphine HCl 0.1 mg/kg s.c.
Method: I. Anti-emetic activity in the dog
Compounds were administered subcutaneously 30 minutes prior to administration of a standard dose of apomorphine HCl (0.1 mg/kg subcutaneously) and the vomiting response compared to that obtained when the same animals were dosed with apomorphine HCl and vehicle only.

Dopamine Receptor [4] = test: Inhibition of apomorphine induced climbing in the mouse (dopamine receptor blocking activity in the central nervous system); conditions: s.c., apomorphine 1 mg/kg s.c., not necessarily the lowest active dose

| SMILES | Active Dose (inhibition of apomorphine induced climbing) (Dopamine Receptor [1]) | further results |
| --- | --- | --- |
| COc1cc(N)c(Cl)cc1C(=O)N[C@@H]1C[C@H]2COC[C@@H](C1)N2Cc1ccc(Cl)c(Cl)c1 [Compound 20, 2-Methoxy-5-chloro-4-amino-[N-(9-(3,4-dichlorobenzyl)-9-aza-3-oxabicyclo(3,3,1)nonan-7β-yl)]benzamide] | 10 mg/kg | – |
| COc1ccc(CN2[C@@H]3COC[C@H]2C[C@H](NC(=O)c2cc(Cl)c(N)cc2OC)C3)cc1 [Compound 19, 2-Methoxy-5-chloro-4-amino-[N-(9-(4-methoxybenzyl)9-aza-3-oxabicyclo(3,3,1)nonan-7β-yl)]benzamide] | 10 mg/kg | – |
| COc1cc(N)c(Cl)cc1C(=O)N[C@@H]1C[C@H]2COC[C@@H](C1)N2Cc1cccs1 [Compound 24, 2-Methoxy-5-chloro-4-amino-[N-(9-(2-thenyl)-9-aza-3-oxabicyclo(3,3,1)nonan-7β-yl)]benzamide] | 10 mg/kg | – |
| COc1cc(N)c(Cl)cc1C(=O)N[C@@H]1C[C@H]2COC[C@@H](C1)N2Cc1ccc(C)cc1 [Compound 22, 2-Methoxy-5-chloro-4-amino-[N-(9-(4-methylbenzyl)-9-aza-3-oxabicyclo(3,3,1)nonan-7β-yl)]benzamide] | 10 mg/kg | – |
| COc1cc(N)c(Cl)cc1C(=O)N[C@@H]1C[C@H]2COC[C@@H](C1)N2Cc1cccc(C(F)(F)F)c1 [Compound 21, 2-Methoxy-5-chloro-4-amino-[N-(9-(3-trifluoromethylbenzyl)-9-aza-3-oxabicyclo(3,3,1)nonan-7β-yl)]benzamide] | 50 mg/kg | – |
| CCCCCCN1[C@@H]2COC[C@H]1C[C@H](NC(=O)c1cc(Cl)c(N)cc1OC)C2 [Compound 23, 2-Methoxy-5-chloro-4-amino[N-(9-(n-hexyl)-9-aza-3-oxabicyclo(3,3,1)nonan-7β-yl)]benzamide] | 10 mg/kg | – |
| COc1cc(N)c(Cl)cc1C(=O)N[C@@H]1C[C@H]2COC[C@@H](C1)N2CCC(C)C [Compound 25, 2-Methoxy-5-chloro-4-amino-[N-(9-(3-methylbutyl)-9-aza-3-oxabicyclo(3,3,1)nonan-7β-yl)]benzamide] | 10 mg/kg | – |
| COc1cc(NC(C)=O)c(Cl)cc1C(=O)N[C@@H]1C[C@H]2COC[C@@H](C1)N2Cc1ccccc1 [Compound 1, 2-Methoxy-5-chloro-4-acetamido-N-[9-benzyl-9-aza-3-oxabicyclo(3,3,1)nonan-7β-yl]-benzamide] | 2 mg/kg | – |
| COc1cccc(C(=O)N[C@@H]2C[C@H]3COC[C@@H](C2)N3Cc2ccccc2)c1OC [Compound 6, 2,3-Dimethoxyj-[N-(9-benzyl-9-aza-3-oxabicyclo(3,3,1)nonan-7β-yl)]benzamide] | 2 mg/kg | – |
| COc1cc(N)c(Cl)cc1C(=O)N[C@@H]1C[C@H]2COC[C@@H](C1)N2CC1CCCCC1 [Compound 26] | 10 mg/kg | – |
| COc1cc(N)c(Cl)cc1C(=O)N[C@@H]1C[C@H]2COC[C@@H](C1)N2Cc1ccccc1 [Compound 2, 2-Methoxy-5-chloro-4-amino-N-[9-benzyl-9-aza-3-oxabicyclo(3,3,1)nonan-7β-yl]-benzamide] | 1 mg/kg | Reversal of the action of 6,7-ADTN on gastric motility [2]: reversed the action of 6,7-ADTN; ED50 [3]: 0.005 mg/kg |
| COc1ccc(S(C)(=O)=O)cc1C(=O)N[C@@H]1C[C@H]2CSC[C@@H](C1)N2Cc1ccccc1 [Compound 5, 2-Methoxy-5-methylsulphonyl-N-[9-benzyl-9-aza-3-thiabicyclo (3,3,1)nonan-7β-yl]benzamide] | – | Active Dose (inhibition of apomorphine induced climbing) (Dopamine Receptor [4]): 50 mg/kg; Reversal of the action of 6,7-ADTN on gastric motility [2]: reversed the action of 6,7-ADTN; ED50 [3]: 0.1 mg/kg |
| COc1cc(N)c(Cl)cc1C(=O)N[C@@H]1C[C@H]2COC[C@@H](C1)N2Cc1ccc(Cl)cc1 [Compound 18, 2-Methoxy-5-chloro-4-amino-[N-(9-(4-chlorobenzyl)-9-aza-3-oxabicyclo(3,3,1)nonan-7β-yl)]benzamide] | 10 mg/kg | – |
